Assay results from paper PMC6152024 (Molecules : A Journal of Synthetic Chemistry and Natural …, 2017).

How the values were obtained:
[1] = test system: hepatic CYP3A mRNA; assay: CYP3A expression assay (real-time PCR) in rat liver; format: in vivo; conditions: normalized to GAPDH
Protocol: Rats were randomly divided into four groups (groups A−D, n = 5), respectively. In brief, rats in group A (vehicle control group) were i.g. administered with saline (10 mL/kg), and were euthanized 72 h later. Rats in groups B−D were i.g. administered with Gom A at dose of 20.8 mg/kg (50 µmol/kg, same with pharmacokinetic study), and euthanized 24, 48 and 72 h respectively after Gom A treatment. After euthanization, rat livers were immediately collected, washed with ice-cold saline, and stored at −80 °C for CYP3A protein expression assay.
To determine CYP3A mRNA content in rat liver, the liver samples were homogenized and the total RNA was extracted from liver samples using RNeasy Mini Kit according to the manufacturer’s instructions (Qiagen). The concentration of total RNA was determined by UV spectra at 260/280 nm, and the purity was determined by calculating the ration of UV absorbance. 2 µg of total RNA in a total volume of 50 µL (1 µg/25 µL) was reverse transcribed into template cDNA using dNTP mix (1 mM), random primers (0.5 µg/mL), AMV RT (22 U/µL), MgCl2 (25 mM) and RT buffer (10×).
For qRT-PCR, forward and reverse primer sequences (Table 2) of CYP3A gene were used. In a Stratagene Mx3005P sequence detection system (Agilent Technologies Agilent, Santa Clara, CA, USA), 50 ng of cDNA/sample and 10 µM forward and reverse primers were added to a total reaction mixture of 20 µL of SYBR Select Master Mix (Invitrogen). GAPDH was applied as the house-keeping gene. All assays were performed in triplicate. […] The CYP3A mRNA levels of groups A−D were expressed as a ratio of induced to vehicle control group (group A).

[2] = test system: rat hepatic CYP3A; assay: Effect of Gom A pretreatment on rat hepatic CYP3A activity (liver microsomes from pretreated rats); format: in vivo; conditions: RLMs; for DCCTX production decrease compared with control group: CTX 100 ng/mL; for rat hepatic CYP3A activity, % of the control group activity: Tes 25 µM
Protocol: Rats were randomly divided into four groups (control group; pretreatment groups: 0.5 h group, 6 h group, 12 h group). Rats in control group and pretreatment groups were administrated (i.g.) with saline (2 mL/kg) and Gom A (20.8 mg/kg) respectively. In control group, rats were anesthetized 0.5 h after administration. In pretreatment groups, rats were anesthetized 0.5 h, 6 h, 12 h after Gom A pretreatment respectively. After anesthesia, the rat livers were infused with cool saline. After infusion, rats were euthanized and livers were collected. The liver microsomes were prepared using calcium precipitation method. Briefly, livers were weighted, washed with cool PBS (0.1 M), and then homogenized in cool Tris-PBS (50 mM Tris, w/v = 1:4). The mixture was centrifuged at 14,000 g for 20 min at 4 °C. The supernatant was mixed with CaCl2 solution (88 mM, vsupernantant/vCaCl2 = 10:1) and then centrifuged at 14,000 g for 20 min at 4 °C. The precipitate was resuspended in Tris-PBS and centrifuged (14,000 g, 4 °C, 20 min). Finally, the precipitate was resuspended in PBS containing 250 mM glucose, giving a concentration of 5 mg protein/mL. The prepared microsomes were stored at −80 °C until use.
To determine the effect of Gom A pretreatment on rat hepatic CYP3A activity, liver microsomes from control and pretreatment groups were incubated with Tes (25 µM) and CTX (100 ng/mL) respectively. The incubation procedures were similar with Section 4.3.1 and Section 4.3.4 for Tes and CTX incubation, respectively. For incubations using Tes, 0.5 mg/mL RLMs was incubated with 25 µM Tes in PBS (0.1 M) containing NADPH-gs at 37 °C in a total volume of 200 µL. After a 5 min warm up period, reactions were initiated with addition of NADPH-gs. Incubations were conducted at 37 °C for 10 min and then terminated by the addition of 200 µL ice-cold acetonitrile containing 18 ng/mL phenacetin (IS-I). For incubations using CTX, 0.5 mg/mL RLMs was incubated with 100 ng/mL CTX in PBS (0.1 M) containing NADPH-gs at 37 °C in a total volume of 200 µL. After a 5 min warm up period, reactions were initiated with addition of NADPH-gs. Incubations were conducted at 37 °C for 60 min and then terminated by the addition of 200 µL ice-cold acetonitrile containing 6 ng/mL of TNZ (IS-II).
After reaction termination, concentration of 6OH-Tes and DCCTX were determined.

[3] = molecular target: CYP3A (Homo sapiens, UniProt P08684); assay: Effect on DCCTX production from CTX in HLMs; format: in vitro ADME; conditions: 10 µM inhibitor, HLMs 0.5 mg/mL, CTX substrate; 60 min
Protocol: The effect of Gom A on CYP3A metabolism of CTX in HLMs was investigated. […] Considering the difficulty for direct CAA determination, DCCTX was assayed to reflect CAA production using an established UHPLC-MS method (II).
The CYP3A inhibitor ketoconazole (Keto) was used as positive control. Briefly, various concentrations of Gom A and Keto (0.01, 0.1, 1 and 10 µM) were incubated with HLMs (0.5 mg/mL) in PBS (0.1 M) containing NADPH-gs and 100 µM CTX in a total volume of 200 µL. After a 5 min warm up period, reactions were initiated with addition of NADPH-gs. Incubations were conducted at 37 °C for 60 min and then terminated by the addition of 200 µL ice-cold acetonitrile containing 6 ng/mL of TNZ (IS-II).

[4] = 0.5 h after Gom A 20.8 mg/kg i.g.
[5] = 6 h after Gom A 20.8 mg/kg i.g.
[6] = 12 h after Gom A 20.8 mg/kg i.g.

Sequence of CYP3A (P08684 2-503): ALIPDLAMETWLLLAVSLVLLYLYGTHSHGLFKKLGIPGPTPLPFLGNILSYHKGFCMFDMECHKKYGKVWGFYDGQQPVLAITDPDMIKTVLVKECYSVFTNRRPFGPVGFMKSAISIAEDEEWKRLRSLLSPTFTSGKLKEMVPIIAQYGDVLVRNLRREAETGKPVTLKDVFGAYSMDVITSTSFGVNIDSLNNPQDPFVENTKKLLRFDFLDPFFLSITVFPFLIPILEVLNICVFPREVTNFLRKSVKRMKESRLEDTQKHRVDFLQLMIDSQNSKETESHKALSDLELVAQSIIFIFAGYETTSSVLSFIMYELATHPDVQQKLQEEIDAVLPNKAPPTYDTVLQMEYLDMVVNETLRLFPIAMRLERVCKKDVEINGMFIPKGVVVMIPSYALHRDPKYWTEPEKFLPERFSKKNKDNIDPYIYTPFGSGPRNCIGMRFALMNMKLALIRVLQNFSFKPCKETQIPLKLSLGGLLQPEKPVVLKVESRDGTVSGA

## Gomisin A [Gom A]
[1]; 24 h after single dose Gom A 20.8 mg/kg i.g.
  hepatic CYP3A mRNA expression increase vs vehicle group: 73 fold
[1]; 48 h after single dose Gom A 20.8 mg/kg i.g.
  hepatic CYP3A mRNA expression increase vs vehicle group: 18 fold
[1]; 72 h after single dose Gom A 20.8 mg/kg i.g.
  hepatic CYP3A mRNA expression increase vs vehicle group: 8 fold
[2]; [4]
  DCCTX production decrease compared with control group: 54.7%
  rat hepatic CYP3A activity, % of the control group activity: 52.1%
[2]; [5]
  DCCTX production decrease compared with control group: 52.0%
  rat hepatic CYP3A activity, % of the control group activity: 37.3%
[2]; [6]
  DCCTX production decrease compared with control group: 40.5%
  rat hepatic CYP3A activity, % of the control group activity: 61.2%
[3]
  DCCTX production, % of that in control group: 15%
